Measured values: patent publication US20060276464A1, “Diarylsulfone sulfonamides and use thereof” (Wyeth, priority 2005, published 2006)

Legend:
SFRP-1 [1] = molecular target: T1, SFRP-1 (Homo sapiens, UniProt Q8N474); assay: Cell-based assay for in vitro measurement of SFRP-1/SARP2 antagonist activity (U2OS cells co-transfected with 16x TCF-tk-Luciferase reporter, Wnt and hSFRP-1); settings: for fold induction at 10 µM: U2OS, read-out: Fold Induction with SFRP-1, U2OS cells, single dose 10 μM, luciferase reporter, fold induction over SFRP-1 control;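 for all read-outs here: U2OS cells co-transfected with a TCF-tk luciferase reporter, a Wnt vector, hSFRP-1 or empty vector and CMV-βgal, luciferase luminescence read in cell lysates alongside βgal activity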
T1 sequence (Q8N474 32-314): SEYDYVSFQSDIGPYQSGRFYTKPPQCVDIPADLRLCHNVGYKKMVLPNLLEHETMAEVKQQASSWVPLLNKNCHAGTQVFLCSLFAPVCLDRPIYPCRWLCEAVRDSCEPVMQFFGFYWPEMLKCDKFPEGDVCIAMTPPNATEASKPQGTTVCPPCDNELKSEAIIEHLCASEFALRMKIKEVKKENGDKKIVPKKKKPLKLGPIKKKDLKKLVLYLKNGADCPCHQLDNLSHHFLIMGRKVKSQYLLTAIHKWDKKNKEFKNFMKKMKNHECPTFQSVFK

SFRP-1 [2] = molecular target: T1, SFRP-1; assay: Fluorescence polarization binding assay (competitive displacement of a probe compound from SFRP-1); settings: fluorescence anisotropy, 45 nM SFRP-1, 20 nM probe;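 note: test compound competes with a fluorescent probe held by SFRP-1, seen as a drop in probe anisotropy after incubation in darkness, with anisotropy as function of rising compound dose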

melting point [°C]	EC50 (SFRP-1 [1]) [µM]	fold induction at 10 µM (SFRP-1 [1])	IC50 (SFRP-1 [2]) [µM]	SMILES
225	0.301	2.6	0.17	CC(C)c1ccc(S(=O)(=O)c2ccccc2)cc1S(=O)(=O)NC1CCN(C(=O)c2ccccc2)CC1 [Example 802, N-(1-Benzoylpiperidin-4-yl)-2-isopropyl-5-(phenylsulfonyl)benzenesulfonamide]
160 to 162	–	3.2	0.29	COc1ccccc1C(=O)N1CCC(NS(=O)(=O)c2cc(S(=O)(=O)c3ccccc3)ccc2C(C)C)CC1 [Example 803, 2-Isopropyl-N-[1-(2-methoxybenzoyl)piperidin-4-yl]-5-(phenylsulfonyl)benzenesulfonamide]
215 to 218	–	3	0.3	CC(C)c1ccc(S(=O)(=O)c2ccccc2)cc1S(=O)(=O)NC1CCN(C(=O)c2cccc(F)c2)CC1 [Example 804, N-[1-(3-Fluorobenzoyl)piperidin-4-yl]-2-isopropyl-5-(phenylsulfonyl)benzenesulfonamide]
218 to 220	0.512	3	0.4	CC(C)c1ccc(S(=O)(=O)c2ccccc2)cc1S(=O)(=O)NC1CCN(C(=O)c2ccc(F)cc2)CC1 [Example 805, N-[1-(4-Fluorobenzoyl)piperidin-4-yl]-2-isopropyl-5-(phenylsulfonyl)benzenesulfonamide]
210 to 212	0.238	2.8	0.23	CC(C)c1ccc(S(=O)(=O)c2ccccc2)cc1S(=O)(=O)NC1CCN(C(=O)c2ccccc2F)CC1 [Example 806, N-[1-(2-Fluorobenzoyl)piperidin-4-yl]-2-isopropyl-5-(phenylsulfonyl)benzenesulfonamide]
140 to 142	–	3	0.9	CC(C)c1ccc(S(=O)(=O)c2ccccc2)cc1S(=O)(=O)NC1CCN(C(=O)c2ccc(C(F)(F)F)cc2)CC1 [Example 807, 2-Isopropyl-5-(phenylsulfonyl)-N-{1-[4-(trifluoromethyl)benzoyl]piperidin-4-yl}benzenesulfonamide]
163 to 165	0.945	3.7	0.5	CC(C)c1ccc(S(=O)(=O)c2ccccc2)cc1S(=O)(=O)NC1CCN(C(=O)c2cccc3ccccc23)CC1 [Example 808, 2-Isopropyl-N-[1-(1-naphthoyl)piperidin-4-yl]-5-(phenylsulfonyl)benzenesulfonamide]
130 to 132	–	2.8	1.1	CC(C)c1ccc(S(=O)(=O)c2ccccc2)cc1S(=O)(=O)NC1CCN(C(=O)c2ccc3ccccc3c2)CC1 [Example 809, 2-Isopropyl-N-[1-(2-naphthoyl)piperidin-4-yl]-5-(phenylsulfonyl)benzenesulfonamide]
120 to 122	0.818	3.1	0.29	CC(C)c1ccc(S(=O)(=O)c2ccccc2)cc1S(=O)(=O)NC1CCN(C(=O)c2cccc(C#N)c2)CC1 [Example 810, N-[1-(3-Cyanobenzoyl)piperidin-4-yl]-2-isopropyl-5-(phenylsulfonyl)benzenesulfonamide]
136 to 138	–	2.6	0.3	CC(C)c1ccc(S(=O)(=O)c2ccccc2)cc1S(=O)(=O)NC1CCN(C(=O)c2ccc(C#N)cc2)CC1 [Example 811, N-[1-(4-Cyanobenzoyl)piperidin-4-yl]-2-isopropyl-5-(phenylsulfonyl)benzenesulfonamide]
150 to 152	–	3.9	0.6	CC(C)c1ccc(S(=O)(=O)c2ccccc2)cc1S(=O)(=O)NC1CCN(C(=O)c2ccc(C(C)(C)C)cc2)CC1 [Example 812, N-[1-(4-tert-Butylbenzoyl)piperidin-4-yl]-2-isopropyl-5-(phenylsulfonyl)benzenesulfonamide]
164 to 166	0.674	3.9	0.4	CCOc1ccc2ccccc2c1C(=O)N1CCC(NS(=O)(=O)c2cc(S(=O)(=O)c3ccccc3)ccc2C(C)C)CC1 [Example 813, N-[1-(2-Ethoxy-1-naphthoyl)piperidin-4-yl]-2-isopropyl-5-(phenylsulfonyl)benzenesulfonamide]
155 to 157	1.54	3.6	0.6	CCCc1ccc(S(=O)(=O)c2ccccc2)cc1S(=O)(=O)NCCc1ccncc1 [Example 859, 5-(Phenylsulfonyl)-2-propyl-N-(2-pyridin-4-ylethyl)benzenesulfonamide]
111 to 113	2	3.1	1.95	CCCc1ccc(S(=O)(=O)c2ccc(F)cc2)cc1S(=O)(=O)NCCc1cccnc1 [Example 874, 5-[(4-Fluorophenyl)sulfonyl]-2-propyl-N-(2-pyridin-3-ylethyl)benzenesulfonamide]
160 to 162	6.65	1.6	0.6	CCCc1ccc(S(=O)(=O)c2ccc(F)cc2)cc1S(=O)(=O)NCCc1ccncc1 [Example 875, 5-[(4-Fluorophenyl)sulfonyl]-2-propyl-N-(2-pyridin-4-ylethyl)benzenesulfonamide]
